In test [1] the target is T1, MMP3 (Homo sapiens, UniProt P08254).
T1 construct: purchased R&D Systems 513-MP
The test is described as follows: MMP3 fluorogenic peptide biochemical assay. The text has this: (§1) Source of enzymes for biochemical assays: Except for ADAM17 and MT1-MMP, all recombinant human MMPs and ADAMs were obtained from R&D Systems (Minneapolis, Minn.). […] MT1-MMP was obtained from US Biological (Swampscott, Mass.) with a catalog number of M2429. Porcine ADAM17 was purified in house from porcine spleen.
(§2) Substrates for biochemical assays: Fluorogenic Peptide substrate, (7-methoxycoumarin-4-yl)acetyl-Pro-Leu-Gly-Leu-(3-[2,4-dinitrophenyl]-L-2,3-diaminopropionyl)-Ala-Arg-NH2 (SEQ ID NO: 46), was obtained from R&D Systems (Minneapolis, Minn.) with a catalog number of ES001. It was used as substrate for MMP1, MMP2, MMP7, MMP8, MMP9, MMP12, MMP13, and MT1-MMP. Fluorogenic Peptide substrate, (7-methoxycoumarin-4-yl)acetyl-Arg-Pro-Lys-Pro-Val-Glu-Nva-Trp-Arg-Lys(2,4-dinitrophenyl)-NH2 (SEQ ID NO: 47), was obtained from R&D Systems with a catalog number of ES002. It was used as substrate for MMP3 and MMP10. […]
(§3) In general, 5 mM compound stock was prepared in DMSO. […] The plate was read on a plate reader with excitation of 320 nm and emission of 405 nm. Percentage of inhibition was calculated for each concentration and IC50 value was generated from curve fitting. […]

For test [2], the system named is Her-2 sheddase. The test is described as follows: Her-2 ECD ELISA of BT474 culture supernatants (Her-2 sheddase inhibition). In kind it is cell-based, human. As for the experimental part: BT474 cells were seeded in 100 μL of RPMI medium containing 10% FCS+10 μg/ml insulin in 96 well plates at 2×10^4 cells/well. The cells were incubated overnight at 37° C. The following morning, the media was removed and 100 μL of fresh media with or without compound was added back. The cells were incubated for about 72 hours at 37° C. After about 72 hours, the supernatants were removed. The samples were diluted 1:10 and analyzed using a commercially available Her-2 ELISA kit per manufacturer's instructions (Oncogene Research, catalog #QIA 10).
These inhibitors were added, at varying concentrations, to cultures of BT474 cells, a Her-2 overexpressing breast cancer cell line known to enzymatically process cell surface Her-2 (p185) and release the extracellular domain (ECD) into the culture supernatant, i.e., shedding of ECD. After 72 hours, cell culture supernatants were harvested and assayed for Her-2 ECD content using an ELISA assay.
(An ELISA detects its analyte on a solid surface through an enzyme-linked reagent.)

Test [3] deals with T2, MMP2 (Homo sapiens, UniProt P08253).
T2 construct: purchased R&D Systems 902-MP
T2 sequence (P08253 110-660): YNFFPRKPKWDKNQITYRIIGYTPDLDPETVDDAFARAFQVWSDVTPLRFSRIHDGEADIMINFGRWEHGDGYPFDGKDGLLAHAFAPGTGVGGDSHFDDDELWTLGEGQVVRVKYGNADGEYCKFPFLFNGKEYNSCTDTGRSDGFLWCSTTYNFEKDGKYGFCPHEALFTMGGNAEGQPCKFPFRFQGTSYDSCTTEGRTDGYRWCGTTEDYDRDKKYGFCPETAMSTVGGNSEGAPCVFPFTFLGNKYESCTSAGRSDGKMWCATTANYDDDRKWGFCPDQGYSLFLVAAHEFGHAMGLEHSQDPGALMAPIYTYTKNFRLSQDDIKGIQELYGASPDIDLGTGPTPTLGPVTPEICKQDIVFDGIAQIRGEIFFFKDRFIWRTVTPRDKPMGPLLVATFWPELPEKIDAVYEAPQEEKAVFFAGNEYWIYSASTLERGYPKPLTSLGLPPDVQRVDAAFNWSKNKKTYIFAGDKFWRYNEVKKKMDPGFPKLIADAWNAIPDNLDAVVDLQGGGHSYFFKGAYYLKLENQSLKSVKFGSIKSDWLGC
The test is described as follows: MMP2 fluorogenic peptide biochemical assay.
Experimental: Biochemical Assays: In general, assay buffer conditions were chosen based on obtaining optimal enzymatic activities. The specific assay buffer conditions are summarized as following. For MMP1, MMP2, MMP3, MMP7, and MMP12, the assay buffer contains 50 mM Tricine, 10 mM NaCl, 10 mM CaCl2, 1.0 mM ZnCl2, pH 7.4.
To activate MMP enzymes, 10 or 20 μg of lyophilized Pro-MMPs are dissolved in 100 μL of water. 100 mM p-aminophenylmercuric acetate (APMA) stock in DMSO is added to Pro-MMPs to give 1.0 mM final concentration. Incubate enzyme with APMA at 37° C. for a period time specified below.

In test [4] the target is MMP12 (Homo sapiens, UniProt P39900). The test is described as follows: MMP12 fluorogenic peptide biochemical assay.
Chain of MMP12 (P39900 106-470): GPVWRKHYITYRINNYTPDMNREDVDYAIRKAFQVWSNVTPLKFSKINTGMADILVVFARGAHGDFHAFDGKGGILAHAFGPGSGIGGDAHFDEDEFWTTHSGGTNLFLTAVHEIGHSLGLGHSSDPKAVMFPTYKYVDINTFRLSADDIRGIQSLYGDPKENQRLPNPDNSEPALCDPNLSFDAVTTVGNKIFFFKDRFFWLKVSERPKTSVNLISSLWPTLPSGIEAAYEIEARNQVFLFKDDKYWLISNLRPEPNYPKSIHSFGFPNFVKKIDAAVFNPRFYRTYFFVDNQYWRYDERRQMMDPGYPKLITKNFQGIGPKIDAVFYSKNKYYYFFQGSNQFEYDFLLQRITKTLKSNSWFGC
From the text: as §1, §2, §3

The values below come from patent US9345677B2, “Compositions, methods and kits relating to HER-2 cleavage” (Incyte Corporation, priority 2003, dated 2016).

Molecules are shown by their SMILES.

One may read the IC50 as the concentration that inhibits the measured activity by half.

T1 sequence (P08254 100-477): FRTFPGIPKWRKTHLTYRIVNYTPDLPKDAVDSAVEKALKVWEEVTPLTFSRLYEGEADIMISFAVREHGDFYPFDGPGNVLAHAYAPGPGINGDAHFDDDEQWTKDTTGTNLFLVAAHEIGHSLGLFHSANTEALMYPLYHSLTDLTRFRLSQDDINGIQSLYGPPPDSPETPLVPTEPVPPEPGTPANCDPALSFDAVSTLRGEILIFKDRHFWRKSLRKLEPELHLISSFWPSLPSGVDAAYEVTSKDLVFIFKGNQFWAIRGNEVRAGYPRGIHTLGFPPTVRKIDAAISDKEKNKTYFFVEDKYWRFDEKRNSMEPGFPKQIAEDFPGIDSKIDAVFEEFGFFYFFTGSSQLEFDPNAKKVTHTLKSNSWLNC

For `Cc1cc([N+](=O)[O-])ccc1N1CCN(C(=O)[C@@H]2[C@@H](C(=O)NO)CC3(CC3)CN2C)CC1` [Compound 5, (6S,7S)-N-hydroxy-5-methyl-6-{[4-(2-methyl-4-nitrophenyl)piperazin-1-yl]-carbonyl}-5-azaspiro[2.5]octane-7-carboxamide], in test [1], the MMP3 activity entry is “inactive”. In addition, the half-maximal inhibitory concentration (IC50) in test [2] is 198 to 250 nM; in test [4] it was 584 nM. For the same molecule, in test [3], the MMP2 activity result was “inactive”.
